Earlier results, collected in Sander's compilation of Henry's law constants (doi:10.1063/1.1564818).

Test: Henry solubility constant Hcp at 298.15 K (mol/(m3 Pa))
Details: reference: Fernández-Prini et al. (2003); cited value

Henry solubility constant Hcp	SMILES
4.5e-06	[Ne] [neon]
1.4e-05	[Ar] [argon]
3.9e-06	[He] [helium]
1.3e-05	O=O [oxygen]
2.5e-05	[Kr] [krypton]
4.4e-05	[Xe] [xenon]
0.00033	O=C=O [carbon dioxide]
7.8e-06	[HH] [hydrogen]
2.5e-06	FS(F)(F)(F)(F)F [sulfur hexafluoride]

SMILES	Henry solubility constant Hcp
[C-]#[O+] [carbon monoxide]	9.7e-06
